Assay results as given in patent US10682397B2, “Methods of treating fragile X syndrome and related disorders” (Massachusetts Institute of Technology, priority 2015, dated 2020).
Entries after “also recorded” stand apart in the source; their conditions may differ.

How the values were obtained:
[1] = tested on: mice; experiment: MK801-induced hyperlocomotion in the open field; format: in vivo; settings: for MK801-induced hyperlocomotion: MTEP 10 mg/kg i.p. pre-treatment, MK801 0.3 mg/kg
Protocol: To determine the effects of genotype on MK801-induced hyperlocomotion, mice were habituated in the open field (40 cm×40 cm×40 cm box) for 60 min, followed by the administration of vehicle or MK801 and locomotor activity was recorded for another 60 mM. To determine the effects of MTEP by genotype on MK801-induced hyperlocomotion, mice were habituated in the open field for 30 min, followed by the intraperitoneal (i.p.) administration of MTEP (10 mg/kg at a dosing volume of 10 ml/kg). After an additional 30 mM, MK801 (0.3 mg/kg at a dosing volume of 10 ml/kg) was administered i.p. and locomotor activity was recorded for another 60 mM. The time course of drug-induced changes in ambulation was expressed as cm traveled/5 mM over the 120-min session. Sessions were recorded using Plexon's CINEPLEX® Studio and analyzed using Plexon's CINEPLEX® Editor and code written in MATLAB. MK801-induced locomotor activity was scored and analyzed using the average of the final 5 minutes (minute 115-120) per cohort.

[2] = tested on: hippocampal slices; experiment: mGlu-LTD (DHPG-induced) field recordings in hippocampal slices; format: cell-based, mice
Protocol: Slices were prepared as described previously (Dolen et al., Neuron 6, 955-56 (2007)). Acute hippocampal slices (350 μm) were prepared from P28-35 animals in ice-cold dissection buffer containing (in mM): NaCl 87, Sucrose 75, KCl2.5, NaH2PO4 1.25, NaHCO3 25, CaCl2 0.5, MgSO4 7, Ascorbic acid 1.3, and D-glucose 10 (saturated with 95% O2/5% CO2). Immediately following slicing the CA3 region was removed. Slices were recovered in artificial cerebrospinal fluid (aCSF) containing (in mM): NaCl 124, KCl5, NaH2PO4 1.23, NaHCO3 26, CaCl2 2, MgCl2 1, and D-glucose 10 (saturated with 95% O2/5% CO2) at 32.5° C. for ≥3 hours prior to recording.
Field recordings were performed in a submersion chamber, perfused with aCSF (2-3 ml/min) at 30° C. Field EPSPs (fEPSPs) were recorded in CA1 stratum radiatum with extracellular glass electrodes (1-2 MΩ) filled with aCSF. Baseline responses were evoked by stimulation of the Schaffer collaterals at 0.033 Hz with a 2-contact cluster electrode (FHC) using a 0.2 ms stimulus yielding 40-60% of the maximal response. fEPSP recordings were filtered at 0.1 Hz-1 kHz, digitized at 10 kHz, and analyzed using pClamp9 (Axon Instruments). […]
Paired pulse facilitation was induced by applying two pulses at different interstimulus intervals. Facilitation was measured by the ratio of the fEPSP slope of stimulus 2 to stimulus 1. […]

[3] = tested on: hippocampal neurons; experiment: Fluorescence-based calcium imaging in brain slices (Fluo-4 AM); format: cell-based, mice; settings: DHPG 25 μM
Protocol: Hippocampal slices were prepared as described for electrophysiology experiments and recovered in aCSF for 2 hours at 32° C. Slices were then moved to a small recovery chamber and incubated in oxygenated aCSF containing 20 μM fluo-4-acetoxymethyl ester (fluo-4 AM; ThermoFisher) and 0.1% Pluronic F-127 (ThermoFisher) for 1 hour in the dark. After 1 hour, slices were then washed with oxygenated aCSF containing 1 μM tetrodotoxin (Abcam) and 50 μM D-AP5 (Tocris) for 20 minutes in a recording chamber. A low-powered (4×) objective was used to identify the brain region of interest. CA1 pyramidal neurons were visualized using a 40× water immersion objective and a Nikon Eclipse E600FN microscope.
Changes in Ca^2+ fluorescence were monitored in the presence of 1 μM tetrodotoxin and 50 μM D-AP5 using a Hamamatsu ORCA-100 camera, HClmage software (Hamamatsu), and a mercury arc-lamp and power supply (Nikon). After a 10 second baseline, 25 μM (S)-3,5-DHPG was bath applied. […] Data were analyzed using Image J software. Increases in Ca^2+ mobilization in hippocampal neurons were reported as changes in relative fluorescence divided by the baseline fluorescence (ΔF/F).
To assay the integrity of Gq signaling, calcium mobilization in hippocampal slices from WT and Arrb2^+/− animals was measured using the cell-permeable calcium fluorescent dye Fluo4-AM. […]

[4] = tested on: hippocampal slices; experiment: Metabolic labeling of new protein synthesis (35S-Met/Cys incorporation) in hippocampal slices; format: cell-based, mice; settings: CDPPB 10 μM, 30 min
Protocol: Metabolic labeling of new protein synthesis was performed as previously described (Osterweil et al., J. Neurosci. 46, 15616-27 (2010)). Male P28-P32 littermate mice were anesthetized with isoflurane and the hippocampus was rapidly dissected into ice-cold aCSF (in mM: 124 NaCl, 3 KCl, 1.25 NaH2PO4, 26 NaHCO3, 10 dextrose, 1 MgCl2, 2 CaCl2, saturated with 95% O2 and 5% CO2). Hippocampal slices (500 μm) were prepared using a Stoelting Tissue Slicer and transferred into 32.5° C. aCSF (saturated with 95% O2 and 5% CO2) within 5 mM. Slices were incubated in aCSF undisturbed for 3.5-4 h to allow for recovery of basal protein synthesis. Actinomycin D (25 μM) and vehicle or CDPPB (10 μM) was then added to the recovery chamber for 30 mM to inhibit transcription and stimulate mGlu receptors, respectively after which slices were transferred to fresh aCSF containing ˜10 mCi/ml [^35S] Met/Cys (Perkin Elmer) for an additional 30 mM Slices were then homogenized, and labeled proteins isolated by TCA precipitation. Samples were read with a scintillation counter and subjected to a protein concentration assay (Bio-Rad). Data was analyzed as counts per minute per microgram of protein, normalized to the [^35S] Met/Cys aCSF used for incubation and the average incorporation of all samples analyzed and then normalized to percent wild-type for each experiment. Statistical significance was determined using unpaired t-tests.
To determine the role of β-arrestin2 in mGlu5-mediated protein synthesis, hippocampal slices from male Arrb2^+/− and wild-type (WT) littermates were stimulated with a selective […] positive modulator of mGlu5, 3-Cyano-N-(1,3-diphenyl-1H-pyrazol-5-yl) benzamide (CDPPB, 10 μM, 30 minutes), and the incorporation of ^35S-methionine/cysteine into new protein was measured. mGlu5 activation caused a parallel increase in protein synthesis (FIG. 1A) and ERK1/2 phosphorylation (FIG. 1B) in WT slices, which were both absent in slices from Arrb2^+/− mice. […]

[5] = tested on: ERK1/2; experiment: Immunoblotting of ERK1/2 phosphorylation in hippocampal slices; format: cell-based, mice; settings: CDPPB 10 μM, 30 min
Protocol: (§1) Hippocampal slices were prepared and recovered as described in metabolic labeling experiments. Sets of slices were stimulated with CDPPB (10 μM) for 30 minutes and then flash frozen in liquid nitrogen immediately after stimulation, prior to processing. Yoked unstimulated slices were also processed to assess basal signaling levels Immunoblotting was performed according to established methods using primary antibodies to p-ERK1/2 (Thr202/Tyr204) (Cell Signaling Technology), ERK1/2 (Cell Signaling Technology), p-Akt (Ser473) (Cell Signaling Technology), Akt (Cell Signaling Technology), […] (Cell Signaling Technology) and S6 (Cell Signaling Technology). Protein levels were measured by densitometry (Quantity One), and quantified as the densitometric signal of phospho-protein divided by the total protein signal in the same lane.

[6] = tested on: AKT; experiment: Immunoblotting of AKT phosphorylation in hippocampal slices; format: cell-based, mice; settings: 10 μM CDPPB
Protocol: as §1

[7] = tested on: ribosomal protein S6; experiment: Immunoblotting of ribosomal protein S6 phosphorylation in hippocampal slices; format: cell-based, mice; settings: 10 μM CDPPB
Protocol: as §1

SMILES: C[C@]12N[C@H](Cc3ccccc31)c1ccccc12 [MK801]
- Locomotor activity compared to vehicle ([1]; MK801 0.3 mg/kg i.p., 60 minutes post-treatment, WT and Arrb2+/− mice (comparable)): hyperlocomotion

SMILES: C[C@@H]1C[C@@H]([C@H](O)CC2CC(=O)NC(=O)C2)C(=O)[C@@H](C)C1 [cycloheximide]
- DHPG-LTD (25 μM, 5 min) magnitude ([2]; Arrb2+/− slices, cycloheximide 60 μM, listed as CHX): unaffected; also recorded: no effect
- DHPG-LTD (25 μM, 5 min) magnitude ([2]; WT slices, cycloheximide 60 μM pretreatment): significantly diminished; also recorded: significantly attenuated

SMILES: COc1ccc2c(c1)CC[C@@H]1[C@@H]2CC[C@]2(C)[C@@H](NCCCCCCN3C(=O)C=CC3=O)CC[C@@H]12 [U73122]
- DHPG-induced changes in calcium fluorescence ([3]; pretreatment with 10 μM U73122, data not shown): completely blocked

SMILES: N[C@H](C(=O)O)c1cc(O)cc(O)c1 [DHPG, (S)-3,5-Dihydroxyphenylglycine]
- Ca2+-mediated fluorescence ([3]; 1 min, WT and Arrb2+/− slices (not significantly different)): rapid increase

SMILES: Cc1nc(C#Cc2cccnc2)cs1 [MTEP, 3-[(2-Methyl-1,3-thiazol-4-yl)ethynyl]-pyridine]
- MK801-induced hyperlocomotion ([1]; Arrb2+/− mice): continues to exacerbate; also recorded: potentiates
- MK801-induced hyperlocomotion ([1]; WT mice): significantly potentiates

SMILES: N#Cc1cccc(C(=O)Nc2cc(-c3ccccc3)nn2-c2ccccc2)c1 [CDPPB, 3-Cyano-N-(1,3-diphenyl-1H-pyrazol-5-yl) benzamide]
- Protein synthesis compared with vehicle ([4]; Arrb1+/− slices): similarly elevated
- Protein synthesis compared with vehicle ([4]; Arrb2+/− slices): no effect
- Protein synthesis compared with vehicle ([4]; WT slices): similarly elevated
- ERK1/2 phosphorylation compared with vehicle ([5]; Arrb1+/− slices): elevated
- ERK1/2 phosphorylation compared with vehicle ([5]; Arrb2+/− slices): no change
- ERK1/2 phosphorylation compared with vehicle ([5]; WT slices): elevated
- AKT phosphorylation compared with vehicle ([6]; WT and Arrb1+/− slices): Neither WT nor Arrb1^+/− slices stimulated with CDPPB show elevated AKT phosphorylation
- AKT phosphorylation compared with vehicle ([6]; WT and Arrb2+/− slices): Neither WT nor Arrb2^+/− slices stimulated with CDPPB show elevated AKT phosphorylation
- S6 phosphorylation compared with vehicle ([7]; WT and Arrb1+/− slices): Neither WT nor Arrb1^+/− slices stimulated with CDPPB show elevated S6 phosphorylation
- S6 phosphorylation compared with vehicle ([7]; WT and Arrb2+/− slices): Neither WT nor Arrb2^+/− slices stimulated with CDPPB show elevated S6 phosphorylation
